# In patent US20230414515A1, “ACETIC ACID AS PROCESSING AID IN SPRAY DRYING FOR BASIC DRUGS” (Lonza Bend Inc., priority 2020, published 2023):
# Assays:
# [1] = cited from earlier work; for basic pKa: pH at which half of the basic sites are protonated
# [2] = Gefitinib solubility in methanol and methanol:water mixtures without acetic acid (HPLC); format: physicochemical; conditions: thermodynamic from solid, 24 hour stirring
# Description: Crystalline gefitinib was added in excess to methanol and methanol:water mixtures to form saturated solutions at 20° C. After 24 hour of stirring, 1 mL aliquots were centrifuged at 10′000 RCF for 3 min.
# physchem = conditions: 20 °C, organic solvent or mixture, thermodynamic from solid
# Description: The solubility of gefitinib in solvent mixtures with acetic acid were obtained by suspending 300 mg of crystalline gefitinib in 5 mL of solvent (methanol:water) containing 150 microliters of acetic acid at 20° C. (3.9 eq of acetic acid). […] The solubility in 100% methanol with acetic acid was determined after separating undissolved solids by centrifugation of a 1 mL aliquot at 10′000 RCF for 3 min after 1 hour of stirring. The supernatant was then analyzed for gefitinib concentration by HPLC.
# [3] = Solubility of dasatinib in methanol (saturated solution, TGA); format: physicochemical; conditions: organic solvent or mixture, thermodynamic from solid, 25° C., analyzed by TGA
# Description: Dasatinib free base was recrystallized from methanol and dried. Crystalline dasatinib was added in excess to methanol to form a saturated solution at 25° C. The solution was analyzed by TGA and found to contain 3.1 mg/mL dasatinib.
structure (smiles),measurement,setting,value
"CCC[C@H](NC(=O)[C@@H]1[C@H]2CCC[C@H]2CN1C(=O)[C@@H](NC(=O)[C@@H](NC(=O)c1cnccn1)C1CCCCC1)C(C)(C)C)C(=O)C(=O)NC1CC1 [VX-950, Telaprevir]",basic pKa,[1],−0.69
"N#Cc1ccnc(N2C(=O)CC[C@H]2C(=O)N(c2cncc(F)c2)[C@H](C(=O)NC2CC(F)(F)C2)c2ccccc2Cl)c1 [Ivosidenib, ivosidenib]",basic pKa,[1],ca. 1.81
COc1cc2ncnc(Nc3ccc(F)c(Cl)c3)c2cc1OCCCN1CCOCC1 [gefitinib],solubility at 24 h,"[2]; methanol:water 60:40, organic solvent or mixture, Methanol:H2O 60:40, 20° C.",2100 µg/mL
same,solubility at 24 h,"[2]; methanol:water 70:30, organic solvent or mixture, Methanol:H2O 70:30, 20° C.",4000 µg/mL
same,solubility at 24 h,"[2]; methanol:water 80:20, organic solvent or mixture, Methanol:H2O 80:20, 20° C.",6300 µg/mL
same,solubility at 24 h,"[2]; methanol:water 90:10, organic solvent or mixture, Methanol:H2O 90:10, 20° C.",6000 µg/mL
same,solubility at 24 h,"[2]; organic solvent or mixture, Methanol:H2O 100:0, 20° C.",5200 µg/mL
same,basic pKa,[1],6.8
same,solubility at 1 h,physchem; methanol with acetic acid,31000 µg/mL
same,solubility,physchem; methanol:water 60:40 with acetic acid,> 60000 µg/mL
same,solubility,physchem; methanol:water 70:30 with acetic acid,> 60000 µg/mL
same,solubility,physchem; methanol:water 80:20 with acetic acid,> 60000 µg/mL
same,solubility,physchem; methanol:water 90:10 with acetic acid,> 60000 µg/mL
same,solubility,physchem; methanol:water mixtures with acetic acid,≥ 60000 µg/mL
Cc1nc(Nc2ncc(C(=O)Nc3c(C)cccc3Cl)s2)cc(N2CCN(CCO)CC2)n1 [dasatinib],solubility,[3],3100 µg/mL
same,basic pKa,[1],7.2
"COc1ccc(-n2nc(C(N)=O)c3c2C(=O)N(c2ccc(N4CCCCC4=O)cc2)CC3)cc1 [Apixaban, apixaban]",acidic pKa,[1]; pH at which half of the acidic site is deprotonated,ca. 13
same,basic pKa,[1],< 2
